The values below are quoted from earlier work in patent publication US20070224292A1, “Extended effect ergogenic drink” (priority 2006, published 2007).

Read-outs that look alike come from different tables or passages of the source.

The conditions of series [1]: first fifteen minutes of exercise.
For series [2] the following is noted: visual monitoring test simulating night driving.
For series [3] the following is noted: during exercise in normal subjects.
For series [4] the following is noted: after two hours; males (but not females).
For series [5] the following is noted: 200 to 400 mcg chromium three times per day, polynicotinate or picolinate form.
For series [6] the following is noted: three women; 1 mg chromium with 100 mg vitamin C versus 1 mg chromium without vitamin C.
The conditions of series [7]: animals; given at the same time as vitamin C.
The conditions of series [8]: for time to reach peak serum concentrations: following ingestion.
The conditions of series [9]: immediate-release nicotinic acid.
For series [10] the following is noted: in vivo.

Take `Cn1c(=O)c2c(ncn2C)n(C)c1=O` [Caffeine]: the “time to reach peak levels in the bloodstream” value (absorbed through stomach and small intestine) was 15 to 45 min. In addition, the “half-life, women taking oral contraceptives” value (women taking oral contraceptives) is given as “up to 12 hours”. Besides, in series [1], the “reduction of the loss of glycogen” value was “fifty”. In addition, the “effect on attention lapses” value in series [2] is on record as “prevent attention lapses”. Besides, the “circulating free fatty acids and glycerol” value in [3] was “increase circulating free fatty acids and glycerol”. The “CNS stimulation compared to placebo” value in [4] is on record as “lower CNS (Central Nervous System) stimulation”.
In the case of `[Cr]` [Chromium], the “effect on insulin sensitivity” value in series [5] is “improve insulin sensitivity”. For the same molecule, the “plasma levels of chromium” value in series [6] was “higher plasma levels of chromium”. Further, the chromium uptake entry in series [7] is listed as “enhanced”.
With `O=C(O)c1cccnc1` [Niacin, Nicotinic acid], the “time to reach peak serum concentrations” value in series [8] (extended-release form) is 4 to 5 h. In addition, the half-life entry in [8] (immediate release Niacin) is reported as “approximately 1 hour”. Moreover, the “time to reach peak serum concentrations” value in series [8] (immediate-release or crystalline form) was “approximately 45 minutes”. For the same molecule, in [9], the duration of flushing entry is listed as “up to one” and the “time to onset of flushing following ingestion” value was at most 20 min.
With Chromium Polynicotinate, in [10], the “effect on blood lipid levels” value is “lower blood lipid levels”.
